Test [1] has as its system Acinetobacter haemolyticus. Briefly: Antibacterial activity against Acinetobacter haemolyticus expressing carbapenemase-encoding blaOXA-40 gene by Etest method. Type of test: functional.
Test [2] concerns Acinetobacter baumannii. Description: Antibacterial activity against Acinetobacter baumannii B clone by Etest method. In kind it is functional.
In test [3] the test system is Acinetobacter baumannii. Description: Antibacterial activity against Acinetobacter baumannii A clone expressing carbapenemase-encoding blaOXA-40 gene by Etest method. In kind it is functional.
The subject of test [4] is Acinetobacter baumannii. Briefly: Antibacterial activity against Acinetobacter baumannii C clone by Etest method. Type of test: functional.
Test [5] concerns Acinetobacter baumannii. Description: Antibacterial activity against Acinetobacter baumannii A clone expressing carbapenemase-encoding blaOXA-40 gene by agar dilution method. In kind it is functional, organism-based. For orientation: In agar dilution the substance is mixed into plates at graded concentrations.
The test system of test [6] is Acinetobacter baumannii. Briefly: Antibacterial activity against Acinetobacter baumannii B clone by agar dilution method. In kind it is functional, organism-based.
Test [7] has as its system Acinetobacter baumannii. Description: Antibacterial activity against Acinetobacter baumannii C clone by agar dilution method. Type of test: functional, organism-based.
In test [8] the test system is Acinetobacter haemolyticus. Description: Antibacterial activity against Acinetobacter haemolyticus expressing carbapenemase-encoding blaOXA-40 gene by agar dilution method. In kind it is functional, organism-based.

≈ marks a conversion by molar mass, not a printed value. A value given as a limit tells only on which side of the number the result lay.

In turn, `CO/N=C(\C(=O)N[C@@H]1C(=O)N2C(C(=O)[O-])=C(C[N+]3(C)CCCC3)CS[C@H]12)c1csc(N)n1` showed an MIC in test [1] of 4 µg/mL (≈ 8.32 µM).
Regarding `CC1(C)S[C@@H]2[C@H](NC(=O)[C@H](C(=O)O)c3ccsc3)C(=O)N2[C@H]1C(=O)O` [TICARCILLIN], the MIC (in the test on Acinetobacter baumannii [2]; with Acinetobacter baumannii [3]; in test [1]; with Acinetobacter baumannii [4]) was at least 256 µg/mL throughout.
Take `C[C@@H](O)[C@H]1C(=O)N2C(C(=O)O)=C(S[C@@H]3CN[C@H](C(=O)N(C)C)C3)[C@H](C)[C@H]12` [MEROPENEM]: the MIC with Acinetobacter baumannii [2] was 2 µg/mL (≈ 5.22 µM); against Acinetobacter baumannii [3] it was at least 32 µg/mL; in test [1], at least 32 µg/mL; against Acinetobacter baumannii [4], 4 µg/mL (≈ 10.4 µM).
On to `CCN1CCN(C(=O)N[C@@H](C(=O)N[C@@H]2C(=O)N3[C@@H]2SC(C)(C)[C@@H]3C(=O)O)c2ccccc2)C(=O)C1=O` [PIPERACILLIN], for which the MIC against Acinetobacter baumannii [2] is at least 256 µg/mL; in the test with Acinetobacter baumannii [3], at least 256 µg/mL; in test [1], at least 256 µg/mL; in the test with Acinetobacter baumannii [4] it was 64 µg/mL (≈ 124 µM).
As for `C[C@@H](O)[C@H]1C(=O)N2C(C(=O)O)=C(SCCNC=N)C[C@H]12` [IMIPENEM ANHYDROUS], the MIC in the test with Acinetobacter baumannii [2] is at least 32 µg/mL; against Acinetobacter baumannii [3] it was at least 32 µg/mL; in test [1], at least 32 µg/mL; in the test with Acinetobacter baumannii [4] it was 32 µg/mL (≈ 107 µM).
Take `CO[C@@]1(NC(=O)Cc2cccs2)C(=O)N2C(C(=O)O)=C(COC(N)=O)CS[C@@H]21` [CEFOXITIN]: the MIC in the test with Acinetobacter baumannii [2] was at least 256 µg/mL; in the test with Acinetobacter baumannii [3], at least 256 µg/mL; in test [1], 32 µg/mL (≈ 74.9 µM); against Acinetobacter baumannii [4], at least 256 µg/mL.
`C[C@H]1[C@H](NC(=O)/C(=N\OC(C)(C)C(=O)O)c2csc(N)n2)C(=O)N1S(=O)(=O)O` [AZTREONAM] returned an MIC in test [1] of 4 µg/mL (≈ 9.19 µM).
On to `CC1(C)S[C@@H]2[C@H](NC(=O)[C@H](N)c3ccc(O)cc3)C(=O)N2[C@H]1C(=O)O` [AMOXICILLIN], for which the MIC is above 64 µg/mL in the test on Acinetobacter baumannii [2], at least 256 µg/mL against Acinetobacter baumannii [3], at least 256 µg/mL in test [1] and 128 µg/mL (≈ 350 µM) in the test on Acinetobacter baumannii [4].
COLISTIN: the minimal inhibitory concentration (MIC) was above 16 µg/mL with Acinetobacter baumannii [5], above 16 µg/mL against Acinetobacter baumannii [6], 2 µg/mL with Acinetobacter baumannii [7] and 4 µg/mL in test [8].
With `CC(C)(O/N=C(\C(=O)N[C@@H]1C(=O)N2C(C(=O)[O-])=C(C[n+]3ccccc3)CS[C@H]12)c1csc(N)n1)C(=O)O` [CEFTAZIDIME], the minimum inhibitory concentration (MIC) against Acinetobacter baumannii [2] worked out at 4 µg/mL (≈ 7.32 µM); with Acinetobacter baumannii [3], 256 µg/mL (≈ 468 µM); in test [1], 4 µg/mL (≈ 7.32 µM); with Acinetobacter baumannii [4], 4 µg/mL (≈ 7.32 µM).

As usually defined, the MIC is the smallest concentration in the dilution series that meets the test's criterion for growth inhibition. High values mean weaker potency, low ones greater potency.
